Laboratory results from the NIST ThermoML archive (doi:10.1016/j.fluid.2008.04.022).
± gives the expanded uncertainty stated by the source.

Test: xn = mol fraction of the nth substance listed
Details: Fluid (supercritical or subcritical phases), isochoric method

FC(C(F)(F)F)C(F)(F)F [1,1,1,2,3,3,3-heptafluoropropane] + CCF
Details | mass density [kg/m3]
318.18 K, 961.3 kPa, x2 = 0.8032 | 441.9 ± 2.2
323.18 K, 987.1 kPa, x2 = 0.8032 | 441.8 ± 2.2
323.19 K, 1112.7 kPa, x2 = 0.739 | 520.8 ± 2.4
328.18 K, 1011.6 kPa, x2 = 0.8032 | 441.8 ± 2.2
328.19 K, 1144.3 kPa, x2 = 0.739 | 520.7 ± 2.4
333.18 K, 1034.4 kPa, x2 = 0.8032 | 441.7 ± 2.2
333.18 K, 1439.9 kPa, x2 = 0.8036 | 671.6 ± 2.6
333.19 K, 1173.6 kPa, x2 = 0.739 | 520.7 ± 2.4
333.19 K, 1516.7 kPa, x2 = 0.811 | 717.6 ± 2.9
338.18 K, 1058.6 kPa, x2 = 0.8032 | 441.7 ± 2.1
338.18 K, 1369.5 kPa, x2 = 0.44 | 660.6 ± 3
338.18 K, 1481.2 kPa, x2 = 0.8036 | 671.6 ± 2.7
338.18 K, 1560.1 kPa, x2 = 0.811 | 717.5 ± 2.9
338.19 K, 1202.9 kPa, x2 = 0.739 | 520.7 ± 2.4
343.18 K, 1231.3 kPa, x2 = 0.739 | 520.6 ± 2.4
343.18 K, 1519.5 kPa, x2 = 0.8036 | 671.5 ± 2.6
343.18 K, 1601.7 kPa, x2 = 0.811 | 717.5 ± 2.8
343.19 K, 1081.5 kPa, x2 = 0.8032 | 441.7 ± 2.1
343.19 K, 1413.6 kPa, x2 = 0.44 | 660.5 ± 3
343.19 K, 1712.3 kPa, x2 = 0.627 | 835.4 ± 3.2
348.15 K, 2241.8 kPa, x2 = 0.8392 | 1112.1 ± 3.9
348.18 K, 1104.1 kPa, x2 = 0.8032 | 441.6 ± 2
348.18 K, 1260.2 kPa, x2 = 0.739 | 520.6 ± 2.4
348.18 K, 1453.8 kPa, x2 = 0.44 | 660.5 ± 3
348.18 K, 1557.8 kPa, x2 = 0.8036 | 671.4 ± 2.6
348.19 K, 1766.5 kPa, x2 = 0.627 | 835.3 ± 3.1
348.2 K, 1643.2 kPa, x2 = 0.811 | 717.4 ± 2.8
353.15 K, 2312 kPa, x2 = 0.8392 | 1112 ± 3.9
353.18 K, 1127 kPa, x2 = 0.8032 | 441.6 ± 2
353.18 K, 1287.6 kPa, x2 = 0.739 | 520.5 ± 2.3
353.19 K, 1493.5 kPa, x2 = 0.44 | 660.4 ± 3
353.19 K, 1594.5 kPa, x2 = 0.8036 | 671.4 ± 2.6
353.19 K, 1683.4 kPa, x2 = 0.811 | 717.3 ± 2.7
353.19 K, 1818 kPa, x2 = 0.627 | 835.2 ± 3.1
358.17 K, 1314.9 kPa, x2 = 0.739 | 520.5 ± 2.3
358.17 K, 1532 kPa, x2 = 0.44 | 660.3 ± 3
358.18 K, 1148.5 kPa, x2 = 0.8032 | 441.6 ± 2
358.18 K, 1631.3 kPa, x2 = 0.8036 | 671.3 ± 2.5
358.19 K, 1722.8 kPa, x2 = 0.811 | 717.3 ± 2.7
358.19 K, 1868.1 kPa, x2 = 0.627 | 835.2 ± 3
358.23 K, 2381.4 kPa, x2 = 0.8392 | 1111.9 ± 3.8
363.14 K, 2448.2 kPa, x2 = 0.8392 | 1111.8 ± 3.8
363.19 K, 1171.1 kPa, x2 = 0.8032 | 441.5 ± 1.9
363.19 K, 1569.8 kPa, x2 = 0.44 | 660.3 ± 3
363.19 K, 1761.7 kPa, x2 = 0.811 | 717.2 ± 2.7
363.19 K, 1917 kPa, x2 = 0.627 | 835.1 ± 3
363.2 K, 2459.6 kPa, x2 = 0.4954 | 1290.6 ± 4.5
363.21 K, 1667 kPa, x2 = 0.8036 | 671.3 ± 2.5
363.31 K, 1342.8 kPa, x2 = 0.739 | 520.4 ± 2.2
368.14 K, 1369.4 kPa, x2 = 0.739 | 520.4 ± 2.2
368.14 K, 1800.8 kPa, x2 = 0.811 | 717.2 ± 2.6
368.16 K, 1608 kPa, x2 = 0.44 | 660.2 ± 2.9
368.16 K, 1966 kPa, x2 = 0.627 | 835 ± 3
368.17 K, 1703 kPa, x2 = 0.8036 | 671.2 ± 2.5
368.18 K, 2515 kPa, x2 = 0.8392 | 1111.7 ± 3.8
368.18 K, 2548.7 kPa, x2 = 0.4954 | 1290.5 ± 4.4
368.29 K, 1193.9 kPa, x2 = 0.8032 | 441.5 ± 1.9
373.04 K, 1215 kPa, x2 = 0.8032 | 441.5 ± 1.9
373.15 K, 1644.9 kPa, x2 = 0.44 | 660.2 ± 2.8
373.16 K, 1839.4 kPa, x2 = 0.811 | 717.1 ± 2.6
373.18 K, 1396.2 kPa, x2 = 0.739 | 520.4 ± 2.2
373.18 K, 1738.7 kPa, x2 = 0.8036 | 671.2 ± 2.5
373.18 K, 2580 kPa, x2 = 0.8392 | 1111.6 ± 3.8
373.18 K, 2636.7 kPa, x2 = 0.4954 | 1290.4 ± 4.4
373.19 K, 2014.5 kPa, x2 = 0.627 | 835 ± 2.9
376.18 K, 2687.7 kPa, x2 = 0.4954 | 1290.3 ± 4.3
378.17 K, 2644.8 kPa, x2 = 0.8392 | 1111.5 ± 3.8
378.23 K, 1774.6 kPa, x2 = 0.8036 | 671.1 ± 2.4
378.23 K, 2063.3 kPa, x2 = 0.627 | 834.9 ± 2.9
378.25 K, 1422.5 kPa, x2 = 0.739 | 520.3 ± 2.1
378.25 K, 1681.3 kPa, x2 = 0.44 | 660.1 ± 2.8
378.25 K, 1876.9 kPa, x2 = 0.811 | 717 ± 2.6
378.29 K, 1236.9 kPa, x2 = 0.8032 | 441.4 ± 1.8
379.23 K, 2739.1 kPa, x2 = 0.4954 | 1290.3 ± 4.3
382.19 K, 2788.4 kPa, x2 = 0.4954 | 1290.2 ± 4.3
383.08 K, 1448.6 kPa, x2 = 0.739 | 520.3 ± 2.1
383.17 K, 2708.3 kPa, x2 = 0.8392 | 1111.4 ± 3.7
383.2 K, 2110.6 kPa, x2 = 0.627 | 834.8 ± 2.9
383.21 K, 1718.2 kPa, x2 = 0.44 | 660.1 ± 2.7
383.21 K, 1809.6 kPa, x2 = 0.8036 | 671.1 ± 2.4
383.21 K, 1915.8 kPa, x2 = 0.811 | 717 ± 2.6
383.22 K, 1259.2 kPa, x2 = 0.8032 | 441.4 ± 1.8
385.22 K, 2838.9 kPa, x2 = 0.4954 | 1290.1 ± 4.3
388.17 K, 2771 kPa, x2 = 0.8392 | 1111.3 ± 3.7
388.18 K, 1279.7 kPa, x2 = 0.8032 | 441.3 ± 1.8
388.18 K, 2156.7 kPa, x2 = 0.627 | 834.8 ± 2.9
388.19 K, 1754.7 kPa, x2 = 0.44 | 660 ± 2.7
388.19 K, 1844.5 kPa, x2 = 0.8036 | 671 ± 2.4
388.19 K, 1953.2 kPa, x2 = 0.811 | 716.9 ± 2.5
388.19 K, 2887.9 kPa, x2 = 0.4954 | 1290.1 ± 4.3
388.32 K, 1475.8 kPa, x2 = 0.739 | 520.2 ± 2.1
391.22 K, 2937.4 kPa, x2 = 0.4954 | 1290 ± 4.2
393.18 K, 1501.3 kPa, x2 = 0.739 | 520.2 ± 2
393.18 K, 1790.2 kPa, x2 = 0.44 | 660 ± 2.6
393.18 K, 1879 kPa, x2 = 0.8036 | 670.9 ± 2.4
393.18 K, 1990.4 kPa, x2 = 0.811 | 716.9 ± 2.5
393.18 K, 2203.2 kPa, x2 = 0.627 | 834.7 ± 2.8
393.21 K, 1301.7 kPa, x2 = 0.8032 | 441.3 ± 1.8
393.22 K, 2834 kPa, x2 = 0.8392 | 1111.2 ± 3.7
394.18 K, 2985.9 kPa, x2 = 0.4954 | 1289.9 ± 4.2
397.15 K, 3033.4 kPa, x2 = 0.4954 | 1289.9 ± 4.2
398.16 K, 1322.9 kPa, x2 = 0.8032 | 441.3 ± 1.8
398.16 K, 1912.8 kPa, x2 = 0.8036 | 670.9 ± 2.4
398.16 K, 2248.3 kPa, x2 = 0.627 | 834.6 ± 2.8
398.17 K, 1527.2 kPa, x2 = 0.739 | 520.1 ± 2
398.17 K, 1825.4 kPa, x2 = 0.44 | 659.9 ± 2.6
398.17 K, 2027.2 kPa, x2 = 0.811 | 716.8 ± 2.5
398.21 K, 2896 kPa, x2 = 0.8392 | 1111.2 ± 3.7
400.15 K, 3082 kPa, x2 = 0.4954 | 1289.8 ± 4.2
403.14 K, 1344.2 kPa, x2 = 0.8032 | 441.2 ± 1.8
403.15 K, 1946.2 kPa, x2 = 0.8036 | 670.8 ± 2.3
403.16 K, 1553.2 kPa, x2 = 0.739 | 520.1 ± 1.9
403.16 K, 1860.1 kPa, x2 = 0.44 | 659.8 ± 2.5
403.17 K, 2293.4 kPa, x2 = 0.627 | 834.5 ± 2.8
403.19 K, 2956.6 kPa, x2 = 0.8392 | 1111.1 ± 3.6
403.19 K, 3129.8 kPa, x2 = 0.4954 | 1289.8 ± 4.2
403.2 K, 2063.9 kPa, x2 = 0.811 | 716.8 ± 2.5
